Laboratory results: patent publication US20080200454A1, “CARBON-LINKED TETRAHYDRO-PYRAZOLO-PYRIDINE MODULATORS OF CATHEPSIN S” (priority 2007, published 2008)
Read-outs that look alike come from different tables or passages of the source.

Molecular target: Recombinant human cathepsin S (CatS) (Homo sapiens, UniProt P25774)
Assay: Recombinant human cathepsin S (CatS) inhibition assay, fluorogenic substrate Z-Valine-Valine-Arginine-AMC;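 also: Baculovirus-expressed CatS in pH 5.0 sodium acetate buffer with DTT and NaCl, fluorescence read each minute over 20 min, inhibition derived from rate slope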
[1] = CatS IC50, Table 2, average of results obtained

Chain of Recombinant human cathepsin S (CatS) (P25774 115-331): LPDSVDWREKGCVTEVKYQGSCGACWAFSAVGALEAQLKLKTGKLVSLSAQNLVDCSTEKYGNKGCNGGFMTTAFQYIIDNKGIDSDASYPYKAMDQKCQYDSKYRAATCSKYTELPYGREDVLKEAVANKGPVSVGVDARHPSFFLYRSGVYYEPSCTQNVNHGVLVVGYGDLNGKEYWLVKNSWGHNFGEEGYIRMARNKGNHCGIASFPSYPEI

Row | Structure (SMILES) | IC50 [1] [nM] | IC50 (CatS IC50) [nM] | also measured
1 | CS(=O)(=O)N1CCc2c(c(-c3ccc(Cl)c(C#Cc4ccc(C(=O)O)cc4)c3)nn2CCCN2CCOCC2)C1 [Example 19, 4-{2-Chloro-5-[5-methanesulfonyl-1-(3-morpholin-4-yl-propyl)-4,5,6,7-tetrahydro-1H-pyrazolo[4,3-c]pyridin-3-yl]-phenylethynyl}-benzoic acid] | 420 |  | 
2 | CS(=O)(=O)N1CCc2c(c(-c3ccc(Cl)c(C#Cc4ccncc4)c3)nn2CCCN2CCOCC2)C1 [Example 20, 3-(4-Chloro-3-pyridin-4-ylethynyl-phenyl)-5-methanesulfonyl-1-(3-morpholin-4-yl-propyl)-4,5,6,7-tetrahydro-1H-pyrazolo[4,3-c]pyridine] | 540 |  | 
3 | CS(=O)(=O)N1CCc2c(c(-c3ccc(Cl)c(C#Cc4cccnc4)c3)nn2CCCN2CCOCC2)C1 [Example 21, 3-(4-Chloro-3-pyridin-3-ylethynyl-phenyl)-5-methanesulfonyl-1-(3-morpholin-4-yl-propyl)-4,5,6,7-tetrahydro-1H-pyrazolo[4,3-c]pyridine] |  |  | IC50: 1320 nM
4 | CS(=O)(=O)N1CCc2c(c(-c3ccc(Cl)c(C#Cc4ccccn4)c3)nn2CCCN2CCOCC2)C1 [Example 22, 3-(4-Chloro-3-pyridin-2-ylethynyl-phenyl)-5-methanesulfonyl-1-(3-morpholin-4-yl-propyl)-4,5,6,7-tetrahydro-1H-pyrazolo[4,3-c]pyridine] |  |  | IC50: 1850 nM
5 | CS(=O)(=O)N1CCc2c(c(-c3ccc(Cl)c(C#Cc4ccsc4)c3)nn2CCCN2CCOCC2)C1 [Example 23, 3-(4-Chloro-3-thiophen-3-ylethynyl-phenyl)-5-methanesulfonyl-1-(3-morpholin-4-yl-propyl)-4,5,6,7-tetrahydro-1H-pyrazolo[4,3-c]pyridine] | 1440 |  | 
6 | COc1ccccc1C#Cc1cc(-c2nn(CCCN3CCOCC3)c3c2CN(S(C)(=O)=O)CC3)ccc1Cl [Example 24, 3-[4-Chloro-3-(2-methoxy-phenylethynyl)-phenyl]-5-methanesulfonyl-1-(3-morpholin-4-yl-propyl)-4,5,6,7-tetrahydro-1H-pyrazolo[4,3-c]pyridine] |  | 560 | 
7 | CS(=O)(=O)N1CCc2c(c(-c3ccc(Cl)c(C#Cc4cccc(Cl)c4)c3)nn2CCCN2CCOCC2)C1 [Example 25, 3-[4-Chloro-3-(3-chloro-phenylethynyl)-phenyl]-5-methanesulfonyl-1-(3-morpholin-4-yl-propyl)-4,5,6,7-tetrahydro-1H-pyrazolo[4,3-c]pyridine] |  | 700 | 
8 | CS(=O)(=O)N1CCc2c(c(-c3ccc(Cl)c(C#Cc4ccccc4Cl)c3)nn2CCCN2CCOCC2)C1 [Example 26, 3-[4-Chloro-3-(2-chloro-phenylethynyl)-phenyl]-5-methanesulfonyl-1-(3-morpholin-4-yl-propyl)-4,5,6,7-tetrahydro-1H-pyrazolo[4,3-c]pyridine] |  | 720 | 
9 | CS(=O)(=O)N1CCc2c(c(-c3ccc(Cl)c(C#Cc4ccc(Cl)cc4)c3)nn2CCCN2CCOCC2)C1 [Example 28, 3-[4-Chloro-3-(4-chloro-phenylethynyl)-phenyl]-5-methanesulfonyl-1-(3-morpholin-4-yl-propyl)-4,5,6,7-tetrahydro-1H-pyrazolo[4,3-c]pyridine] |  | 200 | 
10 | Cc1ccc(C#Cc2cc(-c3nn(CCCN4CCOCC4)c4c3CN(S(C)(=O)=O)CC4)ccc2Cl)cc1 [Example 29, 3-(4-Chloro-3-p-tolylethynyl-phenyl)-5-methanesulfonyl-1-(3-morpholin-4-yl-propyl)-4,5,6,7-tetrahydro-1H-pyrazolo[4,3-c]pyridine] |  | 280 | 
11 | CS(=O)(=O)N1CCc2c(c(-c3ccc(Cl)c(C#Cc4ccc(C(F)(F)F)cc4)c3)nn2CCCN2CCOCC2)C1 [Example 30, 3-[4-Chloro-3-(4-trifluoromethyl-phenylethynyl)-phenyl]-5-methanesulfonyl-1-(3-morpholin-4-yl-propyl)-4,5,6,7-tetrahydro-1H-pyrazolo[4,3-c]pyridine] |  | 430 | 
12 | CS(=O)(=O)N1CCc2c(c(-c3ccc(Cl)c(C#Cc4ccc(F)cc4)c3)nn2CCCN2CCOCC2)C1 [Example 31, 3-[4-Chloro-3-(4-fluoro-phenylethynyl)-phenyl]-5-methanesulfonyl-1-(3-morpholin-4-yl-propyl)-4,5,6,7-tetrahydro-1H-pyrazolo[4,3-c]pyridine] | 440 |  | 
13 | COc1ccc(C#Cc2cc(-c3nn(CCCN4CCOCC4)c4c3CN(S(C)(=O)=O)CC4)ccc2Cl)cc1 [Example 32, 3-[4-Chloro-3-(4-methoxy-phenylethynyl)-phenyl]-5-methanesulfonyl-1-(3-morpholin-4-yl-propyl)-4,5,6,7-tetrahydro-1H-pyrazolo[4,3-c]pyridine] |  | 490 | 
14 | CS(=O)(=O)N1CCc2c(c(-c3ccc(Cl)c(C#Cc4ccc(F)cc4F)c3)nn2CCCN2CCOCC2)C1 [Example 33, 3-[4-Chloro-3-(2,4-difluoro-phenylethynyl)-phenyl]-5-methanesulfonyl-1-(3-morpholin-4-yl-propyl)-4,5,6,7-tetrahydro-1H-pyrazolo[4,3-c]pyridine] |  | 750 | 
15 | CS(=O)(=O)N1CCc2c(c(-c3ccc(Cl)c(C#Cc4ccccc4C(F)(F)F)c3)nn2CCCN2CCOCC2)C1 [Example 34, 3-[4-Chloro-3-(2-trifluoromethyl-phenylethynyl)-phenyl]-5-methanesulfonyl-1-(3-morpholin-4-yl-propyl)-4,5,6,7-tetrahydro-1H-pyrazolo[4,3-c]pyridine] | 870 |  | 
16 | Cc1ccccc1C#Cc1cc(-c2nn(CCCN3CCOCC3)c3c2CN(S(C)(=O)=O)CC3)ccc1Cl [Example 35, 3-(4-Chloro-3-o-tolylethynyl-phenyl)-5-methanesulfonyl-1-(3-morpholin-4-yl-propyl)-4,5,6,7-tetrahydro-1H-pyrazolo[4,3-c]pyridine] | 1050 |  | 
17 | CS(=O)(=O)N1CCc2c(c(-c3ccc(Cl)c(C#Cc4cccc(C(F)(F)F)c4)c3)nn2CCCN2CCOCC2)C1 [Example 36, 3-[4-Chloro-3-(3-trifluoromethyl-phenylethynyl)-phenyl]-5-methanesulfonyl-1-(3-morpholin-4-yl-propyl)-4,5,6,7-tetrahydro-1H-pyrazolo[4,3-c]pyridine] | 1450 |  | 
18 | CS(=O)(=O)N1CCc2c(c(-c3ccc(Cl)c(C#Cc4ccc(C=O)cc4)c3)nn2CCCN2CCOCC2)C1 [Example 37, 4-{2-Chloro-5-[5-methanesulfonyl-1-(3-morpholin-4-yl-propyl)-4,5,6,7-tetrahydro-1H-pyrazolo[4,3-c]pyridin-3-yl]-phenylethynyl}-benzaldehyde] | 120 |  | 
19 | CS(=O)(=O)N1CCc2c(c(-c3ccc(Cl)c(C#Cc4ccc(N)cc4)c3)nn2CCCN2CCOCC2)C1 [Example 38, 4-{2-Chloro-5-[5-methanesulfonyl-1-(3-morpholin-4-yl-propyl)-4,5,6,7-tetrahydro-1H-pyrazolo[4,3-c]pyridin-3-yl]-phenylethynyl}-phenylamine] | 330 |  | 
20 | CS(=O)(=O)N1CCc2c(c(-c3ccc(Cl)c(C#Cc4ccccc4)c3)nn2CCCN2CCOCC2)C1 [Example 39, 3-(4-Chloro-3-phenylethynyl-phenyl)-5-methanesulfonyl-1-(3-morpholin-4-yl-propyl)-4,5,6,7-tetrahydro-1H-pyrazolo[4,3-c]pyridine] | 610 |  | 
21 | CC(C)(C)OC(=O)NCc1ccc(C#Cc2cc(-c3nn(CCCN4CCOCC4)c4c3CN(S(C)(=O)=O)CC4)ccc2Cl)cc1 [Example 40, (4-{2-Chloro-5-[5-methanesulfonyl-1-(3-morpholin-4-yl-propyl)-4,5,6,7-tetrahydro-1H-pyrazolo[4,3-c]pyridin-3-yl]-phenylethynyl}-benzyl)-carbamic acid tert-butyl ester] |  |  | IC50: 410 nM
22 | CS(=O)(=O)N1CCc2c(c(-c3ccc(Cl)c(C#CCc4ccccc4)c3)nn2CCCN2CCOCC2)C1 [Example 41, 3-[4-Chloro-3-(3-phenyl-prop-1-ynyl)-phenyl]-5-methanesulfonyl-1-(3-morpholin-4-yl-propyl)-4,5,6,7-tetrahydro-1H-pyrazolo[4,3-c]pyridine] |  |  | IC50: 3950 nM
23 | CS(=O)(=O)N1CCc2c(c(-c3ccc(Cl)c(C#CCCc4ccccc4)c3)nn2CCCN2CCOCC2)C1 [Example 42, 3-[4-Chloro-3-(4-phenyl-but-1-ynyl)-phenyl]-5-methanesulfonyl-1-(3-morpholin-4-yl-propyl)-4,5,6,7-tetrahydro-1H-pyrazolo[4,3-c]pyridine] |  |  | IC50: 9750 nM
24 | CS(=O)(=O)N1CCc2c(c(-c3ccc(Cl)c(C#CCCCc4ccccc4)c3)nn2CCCN2CCOCC2)C1 [Example 43, 3-[4-Chloro-3-(5-phenyl-pent-1-ynyl)-phenyl]-5-methanesulfonyl-1-(3-morpholin-4-yl-propyl)-4,5,6,7-tetrahydro-1H-pyrazolo[4,3-c]pyridine] |  |  | IC50: 5450 nM
25 | CS(=O)(=O)N1CCc2c(c(-c3ccc(Cl)c(C#CCCO)c3)nn2CCCN2CCOCC2)C1 [Example 45, 4-{2-Chloro-5-[5-methanesulfonyl-1-(3-morpholin-4-yl-propyl)-4,5,6,7-tetrahydro-1H-pyrazolo[4,3-c]pyridin-3-yl]-phenyl}-but-3-yn-1-ol] | 920 |  | 
26 | CS(=O)(=O)N1CCc2c(c(-c3ccc(Cl)c(C#CCCCO)c3)nn2CCCN2CCOCC2)C1 [Example 46, 5-{2-Chloro-5-[5-methanesulfonyl-1-(3-morpholin-4-yl-propyl)-4,5,6,7-tetrahydro-1H-pyrazolo[4,3-c]pyridin-3-yl]-phenyl}-pent-4-yn-1-ol] |  |  | IC50: 7950 nM
27 | CCCCC#Cc1cc(-c2nn(CCCN3CCOCC3)c3c2CN(S(C)(=O)=O)CC3)ccc1Cl [Example 47, 3-(4-Chloro-3-hex-1-ynyl-phenyl)-5-methanesulfonyl-1-(3-morpholin-4-yl-propyl)-4,5,6,7-tetrahydro-1H-pyrazolo[4,3-c]pyridine] | 10600 |  | 
28 | CS(=O)(=O)N1CCc2c(c(-c3ccc(Cl)c(C#CC4CCCCC4)c3)nn2CCCN2CCOCC2)C1 [Example 48, 3-(4-Chloro-3-cyclohexylethynyl-phenyl)-5-methanesulfonyl-1-(3-morpholin-4-yl-propyl)-4,5,6,7-tetrahydro-1H-pyrazolo[4,3-c]pyridine] |  | 6750 | 
